Experimental data from PubChem BioAssay AID2060898 (Molecular Pharmacology Branch, DTP, NCI, 2025).

System: 616215-338-R-J1-PDC complex spheroid viability
Assay: Anticancer human tumor 616215-338-R-J1-PDC patient-derived colon adenocarcinoma cell line growth inhibition [RAS]
Settings: for IC50: curve of first compound; for viability, T/C: stronger effect = lower value
Source text: RAS pathway inhibitors in Combinations in Complex Spheroids
A high-throughput screen of multi-cell type tumor spheroids was designed to identify active combinations of RAS pathway inhibitors and targeted small molecules. Complex spheroids include a stromal component modeled by human endothelial cells (HUVEC) and fibroblasts modeled by human mesenchymal stem cells (MSCs). The concentration ranges selected for each drug and investigational agent were based upon clinically achievable concentrations if the clinical Cmax of the agent was known.
Compounds. The drugs and investigational agents: abemaciclib (NSC768073), cobimetinib (NSC768068), divarasib (GDC6063, NSC841802), docetaxel (NSC628503), GDC-1971 (RLY-1971, NSC841576), gemcitabine (NSC613327), inavolisib (NSC800729), ipatasertib (NSC767898), KB-0742 (NSC834161), MRTX-1133 (NSC836407), osimertinib (NSC779217), RMC-4630 (NSC839698), RMC-6236 (NSC851965), RMC-6291 (NSC852671), Ro-3306 (NSC812927), sapanisertib (NSC764658), SN-38 (NSC673596), staurosporine (NSC755774), SY5609 (NSC837396), and tovorafenib (DAY101, NSC766906), were obtained from the National Cancer Institute (NCI) Developmental Therapeutics Program Chemical Repository. The FDA-approved anticancer drug set is available from the NCI Developmental Therapeutics Program. […] The stock solutions were prepared in dimethyl sulfoxide (DMSO, Sigma-Aldrich, St. Louis, MO, cat. D2650) at 800-fold the tested concentration and stored at -70 degrees C prior to their use. All drugs and investigational agents were tested over a range starting from a high concentration at or near the clinical Cmax and decreasing in half-log increments. If the clinical Cmax for an agent had not been determined, the highest concentration tested was 10 microM.
Cell Culture. All cells were maintained in an incubator at 37 degrees C and 5% CO2 with 95% humidity. The PDC lines were cultured according to standard operating procedures established by the NCI PDMR. All PDCs were thawed and cultured in Matrigel-coated flasks prepared with a working solution of 1X Ham's F-12 nutrient mix, without supplementation (Invitrogen, Waltham, MA, cat. 11765054), 100 U/mL penicillin-streptomycin (Invitrogen, cat. 15140122), and 2.5% Matrigel (Corning Inc., Corning, NY, cat. 354248) for the first three passages. The 362531-283-R-J2-PDC and 782815-120-R-J1-PDC lines were cultured in 6C/Colon 1B media, which includes advanced DMEM/F-12 (Thermo Fisher Scientific, cat. 12634028), 10 mM HEPES (Thermo Fisher Scientific, cat. 15630080), 1X GlutaMAX supplement (Thermo Fisher Scientific, cat. 35050061), 0.1 mg/mL primocin (InvivoGen, San Diego, CA, cat. ant-pm-2), 10% defined fetal bovine serum, heat inactivated (HyClone Laboratories Inc., Logan, UT, cat. SH30070.03HI), 50% L-WRN conditioned media (ATCC, cat. CRL-3276), 1.25 mM N-Acetyl-L-cysteine (Sigma-Aldrich, cat. A9165), 10 mM nicotinamide (Sigma-Aldrich, cat. N0636), 1X B-27 supplement (Thermo Fisher Scientific, cat. 17504044), 1X N-2 supplement (Thermo Fisher Scientific, cat. 17502048), 50 ng/mL human EGF (Thermo Fisher Scientific, cat. PHG0311), and 10 microM Y-27632 dihydrochloride (Tocris Bioscience, cat. 1254). The K12877-001-R-J1-PDC line was cultured in 6I media, which includes all 6C/Colon 1B media plus 10 ng/mL human FGF-10 (PeproTech, cat. 100-26), 1 ng/mL human FGF-2 (PeproTech, cat. 100-18B), 1 µM prostaglandin E2 (Tocris Bioscience, cat. 2296), […] hydrocortisone (Sigma-Aldrich, cat. H4001), and […] bovine insulin (Sigma-Aldrich, cat. I6634). The K86415-001-R-J1-PDC line was cultured in 6D media, which includes all 6C/Colon 1B media components minus the L-WRN conditioned media. The 485176-168-R4-J1-PDC was cultured in PANC media, which includes all 6C/Colon 1B media plus 100 ng/mL human FGF-10 (PeproTech, cat. 100-26), 500 nM SB-431542 (Selleckchem, cat. S1067), and 10 nM gastrin (Tocris Bioscience, cat. 3006). […]
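Further: spheroids exposed to agents for seven days before viability readout.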
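Wherever viability, T/C is given: 100% = DMSO vehicle control viability.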

Structure (SMILES): CC(Nc1ccc2c(c1)OCCn1cc(N3C(=O)OCC3C(F)F)nc1-2)C(N)=O (configuration not stated) + C#Cc1c(F)ccc2cc(O)cc(-c3ncc4c(N5CC6CCC(C5)N6)nc(OCC56CCCN5CC(F)C6)nc4c3F)c12
- IC50 (second compound 0.0316 µM): > 10 µM
- IC50 (second compound 0.1 µM): > 10 µM
- IC50 (second compound 0.316 µM): > 10 µM
- IC50 (second compound 1 µM): > 10 µM
- IC50 (second compound 3.16 µM): > 10 µM
- IC50 (second compound 10 µM): < 0.0316 µM
- viability, T/C (second compound 0.0316 µM, first compound 0.0316 µM): 98.9%
- viability, T/C (second compound 0.0316 µM, first compound 0.1 µM): 132%
- viability, T/C (second compound 0.0316 µM, first compound 0.316 µM): 104%
- viability, T/C (second compound 0.0316 µM, first compound 1 µM): 104%
- viability, T/C (second compound 0.0316 µM, first compound 3.16 µM): 101%
- viability, T/C (second compound 0.0316 µM, first compound 10 µM): 73%
- viability, T/C (second compound 0.1 µM, first compound 0.0316 µM): 104%
- viability, T/C (second compound 0.1 µM, first compound 0.1 µM): 115%
- viability, T/C (second compound 0.1 µM, first compound 0.316 µM): 113%
- viability, T/C (second compound 0.1 µM, first compound 1 µM): 106%
- viability, T/C (second compound 0.1 µM, first compound 3.16 µM): 98.5%
- viability, T/C (second compound 0.1 µM, first compound 10 µM): 78.2%
- viability, T/C (second compound 0.316 µM, first compound 0.0316 µM): 102%
- viability, T/C (second compound 0.316 µM, first compound 0.1 µM): 122%
- viability, T/C (second compound 0.316 µM, first compound 0.316 µM): 111%
- viability, T/C (second compound 0.316 µM, first compound 1 µM): 108%
- viability, T/C (second compound 0.316 µM, first compound 3.16 µM): 101%
- viability, T/C (second compound 0.316 µM, first compound 10 µM): 76.8%
- viability, T/C (second compound 1 µM, first compound 0.0316 µM): 116%
- viability, T/C (second compound 1 µM, first compound 0.1 µM): 115%
- viability, T/C (second compound 1 µM, first compound 0.316 µM): 106%
- viability, T/C (second compound 1 µM, first compound 1 µM): 100%
- viability, T/C (second compound 1 µM, first compound 3.16 µM): 98.1%
- viability, T/C (second compound 1 µM, first compound 10 µM): 73.8%
- viability, T/C (second compound 3.16 µM, first compound 0.0316 µM): 73.4%
- viability, T/C (second compound 3.16 µM, first compound 0.1 µM): 84.4%
- viability, T/C (second compound 3.16 µM, first compound 0.316 µM): 81.3%
- viability, T/C (second compound 3.16 µM, first compound 1 µM): 85.8%
- viability, T/C (second compound 3.16 µM, first compound 3.16 µM): 91.5%
- viability, T/C (second compound 3.16 µM, first compound 10 µM): 65.6%
- viability, T/C (second compound 10 µM, first compound 0.0316 µM): 50.7%
- viability, T/C (second compound 10 µM, first compound 0.1 µM): 38.7%
- viability, T/C (second compound 10 µM, first compound 0.316 µM): 34%
- viability, T/C (second compound 10 µM, first compound 1 µM): 43.4%
- viability, T/C (second compound 10 µM, first compound 3.16 µM): 31.6%
- viability, T/C (second compound 10 µM, first compound 10 µM): 34.3%
